Two molecules from patent publication US20080194620A1, “Use of Benzodiazepine Receptor Ligands For Combating Signs of Ageing” (L'OREAL, priority 2004, published 2008) can be followed below.

Each structure is given as a SMILES string.

Common to all, as to format: cell-based
The test system of data set [1] is Normal human epidermal keratinocytes. Put plainly: Synthesis of total epidermal glycosaminoglycans (incorporation of 3H-glucosamine). The note with it: 1.5 mM, 72 h incubation. How it is done: Normal human epidermal keratinocytes are cultivated in SFM complete medium for 24 hours. The medium is then removed, and replaced with SFM medium without supplements containing the product PK11195 or the pharmacological reference. It is incubated for 72 h at 37° C. Tritiated glucosamine (D-[6-^3H]-glucosamine, Amersham TRK398 (1.3 Tbq/mmol, 35 Ci/mmol) is added for the last 24 hours of incubation. The glycosaminoglycans are extracted from the culture medium and from the deposited matrix, with a chaotropic buffer, then purified by ion-exchange chromatography. The radioactivity incorporated in the […] molecules (mostly GAGs) is counted by liquid scintillation. The results are expressed as percentage change in synthesis of the GAGs relative to the control.

The test system is the same in data set [2]. In words: Differentiation of keratinocytes: determination of transglutaminase K1 (TGK1) activity by radioassay. Here is the method: (§1) Normal human epidermal keratinocytes are cultivated at 37° C. in keratinocyte-SFM medium (Gibco BRL 3701022) supplemented with EGF (epidermal growth factor) and pituitary extract, with or without calcium supplement (1.5 mM). After culture for 24 hours, the medium is replaced with medium containing the actives to be tested or reference substances. Culture is continued for 96 hours. The transglutaminase K1 (TGK1) activity is evaluated by radioassay, by measuring the covalent addition of tritiated putrescine to casein (acceptor protein) for 1 h 30 min at 37° C. The casein is precipitated with TCA (trichloroacetic acid) on a dry filter and then counted in liquid scintillation. The proteins in each sample are determined by means of a kit (BioRad 500-0116). Statistical analysis of the data is performed by analysis of variance (ANOVA) using Dunnett's multiple comparison test.
(§2) The molecule PK11195 (or 1-(2-chlorophenyl)-N-(1-methyl-propyl)-3-isoquinoline carboxamide), a specific inhibitor of the peripheral benzodiazepine receptor, was tested at respective concentrations of 10^−4 M and 10^−6 M. The active was added to the keratinocyte culture medium, containing calcium or not containing calcium. The effect of a medium alone containing 1.5 mM of calcium (pro-differentiation agent) was used as a positive control of differentiation. […]

Data set [3] has the same test system. Put plainly: Cellular viability of keratinocytes in the TGK1 differentiation cultures. The note with it: 10^−6 M; medium with calcium (1.5 mM); 96 h culture; control = 100%. Here is the method: as §1, §2

In the case of `[Ca+2].[Cl-].[Cl-]` [CaCl2], the “Incorporation of 3H-glucosamine, CPM” value in data set [1] (control 10624 CPM) is listed as 16791 CPM. Also, the “Incorporation of 3H-glucosamine, Percentage/control” value in data set [1] (p<0.01) stood at 158%.
For the molecule `CC1=C(/C=C/C(C)=C/C=C/C(C)=C/CO)C(C)(C)CCC1` [retinol], the TGK1 activity in data set [2] (10^−6 M, medium with calcium (1.5 mM), 96 h culture, control = 100%, *p<0.05) came to 56%. The “decrease in TGK1 activity” value in data set [2] (medium with retinol 10^−6 M (anti-differentiation reference)) is −44%. Also, in data set [3], the Cellular viability is recorded as 103%.
